Results: patent US7368433B2, “Peptides and methods for the control of obesity” (University of Florida Research Foundation, Inc., priority 2002, dated 2008)
Where two headings read alike, the source gives them in different places. Blank lines part the entries; values can stand above or below the molecule they belong to.

How the values were obtained:
[1] = target: T1, mMC5R (Mus musculus, UniProt P41149); test: Functional bioassay (CRE/β-galactosidase reporter), agonist activity at mMC5R; type: cell-based; settings: HEK-293 cells stably expressing receptor; ± SEM
T1 construct: expressed in transfected cells; host or cells: HEK-293
Method: (§1) For cell culture and transfection, briefly, HEK-293 cells were maintained in Dulbecco's modified Eagle's medium (DMEM) with 10% fetal calf serum and seeded 1 day prior to transfection at 1 to 2×10^6 cell/100-mm dish. Melanocortin receptor DNA in the pcDNA3 expression vector (20 μg) were transfected using the calcium phosphate method. Stable receptor populations were generated using G418 selection (1 mg/mL) for subsequent bioassay analysis.
(§2) In the functional bioassay studies, HEK-293 cells stably expressing the melanocortin receptors were transfected with 4 μg CRE/β-galactosidase reporter gene as previously described in the literature. Briefly, 5,000 to 15,000 post transfection cells were plated into 96 well Primera plates (Falcon) and incubated overnight. […] The sample absorbance, OD405, was measured using a 96 well plate reader (Molecular Devices). The relative protein was determined by adding 200 μL 1:5 dilution Bio Rad G250 protein dye:water to the 10 μL cell lysate sample taken previously, and the OD595 was measured on a 96 well plate reader (Molecular Devices). […]
(§3) The pA2 values were generated using the Schild analysis method [Schild, H. O. pA2, A New Scale for the Measurement of Drug Antagonism. […] EC50 and pA2 estimates, and their associated standard errors, were determined by fitting the data to a nonlinear least-squares analysis using the PRISM program (v3.0, GraphPad Inc.).

[2] = target: T2, mMC4R (Mus musculus, UniProt P56450); test: Functional bioassay (CRE/β-galactosidase reporter), agonist activity at mMC4R; type: cell-based; settings: HEK-293 cells stably expressing receptor; ± SEM
T2 construct: expressed in transfected cells; host or cells: HEK-293
Method: as §1, §2, §3

[3] = tested on: food intake; settings: central / ICV administration to rodents, literature, cited from earlier work
[4] = target: T3, human MC4R (Homo sapiens, UniProt P32245); settings: literature (Yang et al 2000; Danho et al); read-out: agonist activity at the human MC4 receptor; cited from earlier work
T3 construct: expressed in transfected cells; host or cells: HEK-293

[5] = target: hMC3R (Homo sapiens, UniProt P41968); settings: literature (Danho et al); cited from earlier work
Sequence of hMC3R (P41968 whole entry): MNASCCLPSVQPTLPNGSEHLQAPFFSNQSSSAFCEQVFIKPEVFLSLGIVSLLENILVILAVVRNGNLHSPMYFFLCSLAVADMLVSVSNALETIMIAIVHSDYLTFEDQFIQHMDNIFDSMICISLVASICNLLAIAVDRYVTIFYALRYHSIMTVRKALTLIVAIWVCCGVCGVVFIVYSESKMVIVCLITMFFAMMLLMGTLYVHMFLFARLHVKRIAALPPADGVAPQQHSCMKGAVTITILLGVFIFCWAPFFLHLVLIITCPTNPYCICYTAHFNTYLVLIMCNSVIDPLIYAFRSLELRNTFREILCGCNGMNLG

T3 sequence (P32245 whole entry): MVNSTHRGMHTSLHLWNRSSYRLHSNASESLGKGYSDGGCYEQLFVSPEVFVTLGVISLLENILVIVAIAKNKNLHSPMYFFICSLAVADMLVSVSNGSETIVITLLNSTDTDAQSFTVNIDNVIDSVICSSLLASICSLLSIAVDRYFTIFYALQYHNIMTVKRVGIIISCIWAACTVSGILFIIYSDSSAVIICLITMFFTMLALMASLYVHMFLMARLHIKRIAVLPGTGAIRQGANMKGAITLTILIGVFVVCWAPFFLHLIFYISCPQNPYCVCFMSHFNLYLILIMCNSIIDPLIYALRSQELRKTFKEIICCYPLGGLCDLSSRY
T1 sequence (P41149 whole entry): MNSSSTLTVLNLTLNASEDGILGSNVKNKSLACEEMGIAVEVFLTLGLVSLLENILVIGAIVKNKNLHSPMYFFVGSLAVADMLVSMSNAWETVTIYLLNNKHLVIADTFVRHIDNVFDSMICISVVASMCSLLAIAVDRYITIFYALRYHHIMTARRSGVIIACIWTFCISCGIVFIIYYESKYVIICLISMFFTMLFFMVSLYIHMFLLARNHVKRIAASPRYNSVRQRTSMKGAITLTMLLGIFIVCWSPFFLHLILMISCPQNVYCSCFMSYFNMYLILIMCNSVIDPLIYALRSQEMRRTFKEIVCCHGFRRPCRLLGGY
T2 sequence (P56450 whole entry): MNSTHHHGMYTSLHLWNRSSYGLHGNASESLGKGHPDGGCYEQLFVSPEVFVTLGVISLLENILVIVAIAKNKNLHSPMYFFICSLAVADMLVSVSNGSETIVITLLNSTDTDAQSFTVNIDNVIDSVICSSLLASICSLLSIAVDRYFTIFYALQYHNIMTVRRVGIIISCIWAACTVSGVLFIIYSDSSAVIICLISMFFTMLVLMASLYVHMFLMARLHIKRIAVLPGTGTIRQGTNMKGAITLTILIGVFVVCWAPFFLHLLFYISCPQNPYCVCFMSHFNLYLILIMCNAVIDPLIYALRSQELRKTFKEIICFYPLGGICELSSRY

EC50 [1]: 3.96 ± 0.94 nM
EC50 [2]: 17.2 ± 2.78 nM
Molecule: CC(=O)N[C@@H](Cc1c[nH]cn1)C(=O)N[C@H](Cc1ccccc1)C(=O)N[C@@H](CCCNC(=N)N)C(=O)N[C@@H](Cc1c[nH]c2ccccc12)C(N)=O [JRH279-31, Ac-His-DPhe-Arg-Trp-NH2]

Molecule: Ac-Nle-c[Asp-His-DNal(2′)-Arg-Trp-Lys]-NH2 [SHU91 19]
effect on food intake [3]: increased food intake
effect on food intake ([3]; listed as SHU-9119): can induce hyperphagia

Molecule: c[Asp-(racemic)Atc-DPhe-Arg-Trp-Lys]-NH2
EC50 [4]: 65 nM
agonist activity at the hMC3R (in words) [5]: only slight agonist activity
